From patent US11179363B2, “Non-steroidal selective glucocorticoid receptor agonistic modulators (SEGRAMs) and uses thereof” (ASSOCIATION POUR LA RECHERCHE À L'IGBMC (ARI), priority 2017, dated 2021)

What was measured:
[1] = system: DSS-induced Th17 ulcerative colitis; experiment: Dextran sodium sulfate (DSS)-induced ulcerative colitis; assay type: in vivo, Balb/C mice; conditions: for pro-inflammatory genes overexpressed in DSS-induced ulcerative colitis (IL-1β, IL-6, IL-17a, IL-17f, TSLP, MMP13): colon, q-RT-PCR, D14; for colonic villus/crypt structure (histology) / mucosal and submucosal cell infiltration (histology): i.p. 1 mg/kg on D11, D12, D13, 3% DSS 13 days
Description: To investigate the anti-inflammatory activity of CpdX and CpdX-D3 on a Th17 ulcerative colitis, Balb/C mice were treated with 3% DSS in drinking water for 13 days, with or without an intraperitoneal administration of either Dex, CpdX, CpdX(eA), CpdX(eB), CpdX-D3, CpdX-D3(eA) or CpdX-D3(eB) (1 mg/kg of body weight) on D11, D12 and D13.
At D14, RNA transcripts were extracted from mouse colons. IL-1β, IL-6, IL-17a, IL-17f, TSLP and MMP13 transcripts were analyzed by q-RT-PCR. Colon samples were also harvested for histological analyses (with H&E staining).

[2] = system: OVA-induced allergic conjunctivitis; experiment: Ovalbumin (OVA)-induced allergic conjunctivitis; assay type: in vivo, Balb/C mice; conditions: 0.1% instillation D22 to D24, 20 minutes after the last OVA challenge
Description: To investigate the anti-inflammatory effect of CpdX or CpdX-D3 on an allergic conjunctivitis, Balb/C mice were intraperitoneally sensitized with 50 μg OVA with alum on both days D1 and D8, and then challenged from D15 to D21 with 250 μg OVA in 5 μL of sterilized vehicle (0.9% NaCl), which were directly instilled onto the conjunctival sac. From D22 to D24, mice were divided into several groups, and received instillations with either OVA alone, OVA together with 0.1% of either Dex, CpdX, CpdX(eA), CpdX(eB), CpdX-D3, CpdX-D3(eA) or CpdX-D3(eB).
The clinical appearance of mouse eyes was evaluated 20 minutes after the last instillation on D24. Clinical signs (conjunctival hyperemia, lid edema and tearing) were scored to evaluate the occurrence and severity of conjunctivitis as described by Gimenes et al. (2015. Experimental Eye Research 134:24-32). Parameters were graded on a scale ranging from 0 to 3, (0=absence, 1=mild, 2=moderate, and 3=severe symptoms), each animal receiving a total clinical score ranging from 0 to 9. The data were expressed as mean±SEM with at least four mice per treatment.

[3] = Blood glucose and intraperitoneal glucose tolerance test (IPGTT) after three-month treatment; assay type: in vivo, B6 male mice; conditions: three months; glucose i.p. injection
Description: B6 male mice (8-week-old) were daily subjected for three months to a subcutaneous injection of either vehicle (NaCl 0.9%), Dex, CpdX, CpdX(eA), CpdX(eB), CpdX-D3, CpdX-D3(eA) or CpdX-D3(eB) (1 mg/kg body weight, diluted in vehicle). Mice were over-night-fasted. Mouse blood glucose concentration was measured before (To) and during two hours (T120) after glucose i.p. injection ([…]).

[4] = system: HDM-induced asthma-like allergic lung inflammation; experiment: House dust mite (HDM)-induced asthma-like allergic lung inflammation; assay type: in vivo, mice
Description: Glucocorticoids have been (Pearlman et al., 1997. Ann Allergy Asthma Immunol. 78(4):356-62), and are still, widely used in asthma therapy. In order to investigate the possible CpdX anti-inflammatory activity in vivo, mice were sensitized and challenged with either ovalbumin (OVA) or house dust mite (HDM) to induce an asthma-like allergic lung inflammation.
Mice were intranasally sensitized with 1 μg HDM from D0 to D4, and further intranasally sensitized with 10 μg HDM on D14 and D21. Mice were then subdivided into eight groups, and on D29, D30 and D31, each mouse was again intranasally challenged with […]. The first seven groups received respectively 0.5 mg/kg of body weight of Dex, CpdX, CpdX(eA), CpdX(eB), CpdX-D3, CpdX-D3(eA) or CpdX-D3(eB), while the eighth group served as a control.
On D32, the airway responsiveness was invasively determined using a computer-controlled small animal ventilator (FlexVent® system, SCIREQ Technologies). Mice were anesthetized with xylazine (15 mg/kg, i.p.), followed 15 minutes later by an i.p. injection of pentobarbital sodium (54 mg/kg). An 18-gauge metal needle was then inserted into the trachea, each mouse was connected to the FlexVent® ventilator and quasi-sinusoidally ventilated with a tidal volume of 10 mL/kg at a frequency of 150 breaths/minute and a positive end-expiratory pressure of 2 cm H2O, in order to achieve a mean lung volume close to spontaneous breathing. After baseline measurement, mice were challenged for 10 seconds with a saline aerosol and, at 4.5-minute intervals, with 50 mg/mL methacholine. Airway resistance and elastance were expressed as cmH2O.s/mL and cmH2O/mL respectively.
The lung allergic inflammation was assessed by examination of the bronchoalveolar lavage (BAL) fluid from each of these HDM-challenged mice. The total BAL cells, eosinophils, neutrophils, macrophages and lymphocytes were counted. RNA transcripts were extracted from lung samples. RNA transcripts of IL-1β, IL-6, IL-4, IL-5, IL-13, Eotaxin, CCL4, IL-10 and TNFα were analyzed by q-RT-PCR. Lung tissues were harvested and histological (with H&E staining) and immunohistochemical analyses were also carried out (with eosinophil-specific and neutrophil-specific antibodies).

[5] = system: dorsal skin of Balb/C mice; experiment: Skin epidermis atrophy after 8-day topical treatment of dorsal skin; assay type: in vivo; conditions: eight-day topical treatment
Text: To investigate whether, similarly to Dex, a topical administration of CpdX could result in a skin atrophy, Balb/C mice were shaved on the dorsal skin. Ethanol (vehicle), Dex, CpdX or either one of its two enantiomers CpdX(eA) or CpdX(eB), as well as the deuterated form CpdX-D3 or either one of its two enantiomers CpdX-D3(eA) or CpdX-D3(eB), were topically applied onto the dorsal skin for 8 days.
Upon completion of the treatments, RNA transcripts were extracted from dorsal skin samples and the transcripts of Kindlin-1 and REDD1 genes were analyzed by q-RT-PCR. Histological and morphometric analyses of the dorsal skin were also performed.

[6] = system: thymus, spleen, adrenal gland and kidney; experiment: Organ weights (thymus, spleen, adrenal gland, kidney) after three-month treatment; assay type: in vivo, B6 male mice; conditions: s.c. 1 mg/kg daily, three months
Description: B6 male mice (8-week-old) were daily subjected for three months to a subcutaneous injection of either vehicle (NaCl 0.9%), Dex, CpdX, CpdX(eA), CpdX(eB), CpdX-D3, CpdX-D3(eA) or CpdX-D3(eB) (1 mg/kg body weight, diluted in vehicle). Following these treatments, four organs (thymus, spleen, adrenal gland and kidney) were harvested and weighted.

[7] = HDM model, 0.5 mg/kg, D32, vs control group
[8] = HDM model, lung paraffin sections
[9] = methacholine 50 mg/mL, FlexVent
[10] = HDM model, 0.5 mg/kg, D32, vs control group; 0.5 mg/kg

For `COc1ccc(F)cc1C(C)(C)CC(O)(CNc1ccc2c(c1)COC2=O)C(F)(F)F` (racemic) [CpdX, 5-[4-(5-fluoro-2-methoxyphenyl)-2-hydroxy-4-methyl-2-(trifluoromethyl)pentylamino]-isobenzofuran-1(3H)-one], the “pro-inflammatory genes overexpressed in DSS-induced ulcerative colitis (IL-1β, IL-6, IL-17a, IL-17f, TSLP, MMP13)” value (from here on “pro-inflammatory genes overexpressed”) [1] was “similarly repressed”, the “colonic villus/crypt structure (histology)” value [1] was “almost reestablished” and the “mucosal and submucosal cell infiltration (histology)” value [1] was “significantly decreased”. The “clinical signs of allergic conjunctivitis (conjunctival hyperemia, lid edema and tearing)” value (“clinical signs” for short) [2] was “considerably reduced”, the “blood glucose level during two-hour IPGTT” value [3] was “no significant difference” and the “number of neutrophils and macrophages in BAL” value ([4]; HDM model, 0.5 mg/kg, D32) was “No significant change”. For the same molecule, the “total number of BAL cells, eosinophils and lymphocytes” value (“total number of BAL cells” for short) [4, 7] was “significantly decreased”, the “eosinophils in lung (immunohistochemistry, eosinophil-specific antibodies)” value ([4]; HDM model, data not shown) was “decreased” and the “lung expression of IL-10 and TNFα” value ([4]; HDM model, data not shown) was “not affected”. The “neutrophils in lung (immunohistochemistry, neutrophil-specific antibody)” value ([4]; HDM model, data not shown) was “no significant change”, the “peribronchiolar and perivascular inflammatory cell infiltration (histology)” value [4, 8] was “strongly decreased” and the “lung expression of pro-inflammatory genes (IL-1β, IL-6, IL-4, IL-5, IL-13, Eotaxin, CCL4)” value ([4]; HDM model, q-RT-PCR) was “significantly and similarly decreased”. For the same molecule, the “HDM-induced airway hyperresponsiveness (AHR), airway resistance and elastance” value (from here on “HDM-induced airway hyperresponsiveness”) [4, 9] was “similarly reduced”, the “epidermal thickness (morphometric analyses)” value (“epidermal thickness” for short) [5] was “not significantly decreased” and the “thymus apoptosis (thymus weight)” value [6] was “did not result in any significant thymus apoptosis”.
In the case of `[2H]C([2H])([2H])Oc1ccc(F)cc1C(C)(C)CC(O)(CNc1ccc2c(c1)COC2=O)C(F)(F)F` (racemic) [CpdX-D3, 5-{4-[2-(methoxy-D3)-5-fluorophenyl]-2-hydroxy-4-methyl-2-(trifluoromethyl)pentylamino}isobenzofuran-1(3H)-one], the “pro-inflammatory genes overexpressed” value [1] is reported as “similarly repressed”, the “colonic villus/crypt structure (histology)” value [1] is reported as “almost reestablished” and the “mucosal and submucosal cell infiltration (histology)” value [1] is reported as “significantly decreased”. For the same molecule, the “clinical signs” value [2] was “considerably reduced”, the “blood glucose level during two-hour IPGTT” value [3] was “no significant difference” and the “number of neutrophils and macrophages in BAL” value ([4]; HDM model, 0.5 mg/kg, D32) was “No significant change”. The “total number of BAL cells” value [4, 7] was “significantly decreased”, the “eosinophils in lung (immunohistochemistry, eosinophil-specific antibodies)” value ([4]; HDM model, data not shown) was “decreased” and the “lung expression of IL-10 and TNFα” value ([4]; HDM model, data not shown) was “not affected”. For the same molecule, the “neutrophils in lung (immunohistochemistry, neutrophil-specific antibody)” value ([4]; HDM model, data not shown) was “no significant change”, the “peribronchiolar and perivascular inflammatory cell infiltration (histology)” value [4, 8] was “strongly decreased” and the “lung expression of pro-inflammatory genes (IL-1β, IL-6, IL-4, IL-5, IL-13, Eotaxin, CCL4)” value ([4]; HDM model, q-RT-PCR) was “significantly and similarly decreased”. The “HDM-induced airway hyperresponsiveness” value [4, 9] was “similarly reduced”, the “epidermal thickness” value [5] was “not significantly decreased” and the “thymus apoptosis (thymus weight)” value [6] was “did not result in any significant thymus apoptosis”.
For `[2H]C([2H])([2H])Oc1ccc(F)cc1C(C)(C)CC(O)(CNc1ccc2c(c1)COC2=O)C(F)(F)F` (single isomer, unassigned; enantiomer a) [CpdX-D3(eA), 5-{4-[2-(methoxy-D3)-5-fluorophenyl]-2-hydroxy-4-methyl-2-(trifluoromethyl)pentylamino}isobenzofuran-1(3H)-one enantiomer A], the “pro-inflammatory genes overexpressed” value [1] was “similarly repressed”, the “colonic villus/crypt structure (histology)” value [1] was “almost reestablished” and the “mucosal and submucosal cell infiltration (histology)” value [1] was “significantly decreased”. For the same molecule, the “clinical signs” value [2] was “considerably reduced”, the “blood glucose level during two-hour IPGTT” value [3] was “no significant difference” and the “total number of BAL cells” value [4, 10] was “efficiently decreased”. For the same molecule, the “peribronchiolar and perivascular inflammatory cell infiltration (histology)” value [4, 8] was “decreased”, the “lung expression of pro-inflammatory genes (IL-1β, IL-6, IL-4, IL-5, IL-13, Eotaxin, CCL4)” value ([4]; HDM model, q-RT-PCR) was “efficiently decreased” and the “epidermal thickness” value [5] was “not significantly decreased”. For the same molecule, the “thymus apoptosis (thymus weight)” value [6] was “did not result in any significant thymus apoptosis”.
For `COc1ccc(F)cc1C(C)(C)CC(O)(CNc1ccc2c(c1)COC2=O)C(F)(F)F` (single isomer, unassigned; enantiomer a) [CpdX(eA), 5-[4-(5-fluoro-2-methoxyphenyl)-2-hydroxy-4-methyl-2-(trifluoromethyl)-pentylamino]isobenzofuran-1(3H)-one enantiomer A], the “pro-inflammatory genes overexpressed” value [1] was “similarly repressed”, the “colonic villus/crypt structure (histology)” value [1] was “almost reestablished” and the “mucosal and submucosal cell infiltration (histology)” value [1] was “significantly decreased”. The “clinical signs” value [2] was “considerably reduced”, the “blood glucose level during two-hour IPGTT” value [3] was “no significant difference” and the “total number of BAL cells” value [4, 10] was “efficiently decreased”. The “peribronchiolar and perivascular inflammatory cell infiltration (histology)” value [4, 8] was “decreased”, the “lung expression of pro-inflammatory genes (IL-1β, IL-6, IL-4, IL-5, IL-13, Eotaxin, CCL4)” value ([4]; HDM model, q-RT-PCR) was “efficiently decreased” and the “HDM-induced airway hyperresponsiveness” value [4, 9] was “reduced”. The “epidermal thickness” value [5] was “not significantly decreased” and the “thymus apoptosis (thymus weight)” value [6] was “did not result in any significant thymus apoptosis”.
